Molecules are shown by their SMILES.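 Exposure lasted 48 hours, with cells grown in 96-well plates and compounds tested at five concentrations. At the GI50, growth is halved.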 Calls of active or inactive are those of the source. No stated cut-off is given here; in the data, active = GI50 up to about 1.1 µM and inactive = higher.

The record followed here is ChEMBL document CHEMBL1201862, “PubChem BioAssay data set” (2004).

What all share (assay): NCI-60 cell line screen, 48 h
The test system of experiment [1] is 786-0.
For experiment [2], the system named is A498.
The subject of experiment [3] is CCRF-CEM.
For experiment [4], the system named is EKVX.
The subject of experiment [5] is HCC 2998.
Experiment [6] has as its system Hs-578T.
Experiment [7] has as its system MDA-MB-231.
The subject of experiment [8] is MOLT-4.
Experiment [9] relates to Malme-3M.
The subject of experiment [10] is NCI-H460.
Experiment [11] deals with OVCAR-3.
Experiment [12] has as its system OVCAR-5.
For experiment [13], the system named is RXF 393.
Experiment [14] concerns SF-295.
The test system of experiment [15] is SK-MEL-5.
Experiment [16] has as its system SNB-19.
The test system of experiment [17] is SR.
The test system of experiment [18] is SW-620.
The subject of experiment [19] is T47D.
Experiment [20] has as its system UO-31.

`CCC/C=C/C=C/C(=O)OC1C(C)C2(O)C3C=C(C)C(=O)C3CC(COC(C)=O)=CC2C2C(C)(C)C12OC(=O)C(C)C` (stereo not given): the GI50 in [1] was 9.62 µM (inactive); in experiment [2] it was 1.66 µM (inactive); in experiment [3], 0.137 µM (active); in [4] it was 19.4 µM (inactive); in experiment [5], 0.329 µM (active); in experiment [6], 0.084 µM (active). Moreover, the GI50 was 3.92 µM (inactive) in experiment [7]; 0.966 µM (active) in experiment [8]; 13.4 µM (inactive) in experiment [9]; 3.08 µM (inactive) in experiment [10]; 17.1 µM (inactive) in experiment [11]; 26.1 µM (inactive) in experiment [12]. Besides, the GI50 in experiment [13] was 17.5 µM (inactive); in experiment [14], 0.462 µM (active); in [15], 1.84 µM (inactive); in [16], 25.7 µM (inactive); in experiment [17], 10.7 µM (inactive); in experiment [18], 0.622 µM (active). The GI50 in [19] was 18.5 µM (inactive); in experiment [20], 15.4 µM (inactive).

As for `COc1ccc(-n2c(SC(CN3CCOCC3)CN3CCCC3=O)nc3ccccc3c2=O)cc1` (stereo not given), the GI50 is > 100 µM (inactive) in experiment [1]; > 100 µM (inactive) in experiment [2]; 67.5 µM (inactive) in [3]; > 100 µM (inactive) in experiment [4]; > 100 µM (inactive) in experiment [5]; > 100 µM (inactive) in experiment [6]. Also, the GI50 in [7] was > 100 µM (inactive); in experiment [8] it was 90.8 µM (inactive); in experiment [9], 91.2 µM (inactive); in experiment [10], > 100 µM (inactive); in experiment [11], > 100 µM (inactive); in [12], > 100 µM (inactive). In addition, the GI50 in experiment [13], in experiment [14], in experiment [15], in [16], in experiment [17] and in [18] was > 100 µM (inactive) each time. For the same compound, the figures for the GI50 in [19] and in [20] were > 100 µM (inactive) and 35.6 µM (inactive), respectively.

With `CCOP(=O)(OCC)c1c(C(=O)OC)cc(=O)[nH]c1-c1ccc(C)cc1`, the GI50 was 20.6 µM (inactive) in experiment [1]; 22 µM (inactive) in experiment [2]; 2.02 µM (inactive) in experiment [3]; 3.73 µM (inactive) in [4]; 18.1 µM (inactive) in experiment [5]; 17.9 µM (inactive) in [6]. In addition, the GI50 in [7] is 25.1 µM (inactive); in [8], 4.57 µM (inactive); in experiment [9] it was 6.1 µM (inactive); in [10] it was 19.1 µM (inactive); in experiment [11], 11.1 µM (inactive); in experiment [12], 5.64 µM (inactive). Further, the GI50 in [13] was 12.5 µM (inactive); in [14], 19.8 µM (inactive); in [15] it was 13.3 µM (inactive); in [16], 21.6 µM (inactive); in experiment [17] it was 3.03 µM (inactive); in experiment [18] it was 5.75 µM (inactive). The GI50 in [19] was 2.58 µM (inactive); in experiment [20] it was 4.05 µM (inactive).

As to `O=C(O)c1ccc(Nc2nc3cc(C(F)(F)F)ccc3n3cccc23)cc1`, the GI50 in [1] is 22.7 µM (inactive); in [2], 42 µM (inactive); in [3], 16.5 µM (inactive); in experiment [4] it was 62.4 µM (inactive); in experiment [5], 15.7 µM (inactive); in experiment [6], 44.4 µM (inactive). Also, the GI50 was 19.7 µM (inactive) in experiment [7]; 25.1 µM (inactive) in experiment [8]; 84.7 µM (inactive) in experiment [9]; 16.1 µM (inactive) in experiment [10]; 30.2 µM (inactive) in experiment [11]; 40.8 µM (inactive) in experiment [12]. In addition, the GI50 in experiment [13] was 17.1 µM (inactive); in [14], 27.2 µM (inactive); in [15], 17.1 µM (inactive); in [16], 54 µM (inactive); in [17], 14.3 µM (inactive); in [18] it was 34.7 µM (inactive). In addition, the GI50 in experiment [19] was 17.3 µM (inactive); in experiment [20], > 100 µM (inactive).

For the compound `COc1cc(C2c3cc4c(cc3OC(C)(N3CCCC3)C2C)OCO4)cc(OC)c1OC` (stereo not given), the GI50 in experiment [1] was 0.428 µM (active); in experiment [2] it was 0.302 µM (active); in experiment [3], 0.267 µM (active); in experiment [4] it was 0.43 µM (active); in experiment [5] it was 0.389 µM (active); in [6], 0.273 µM (active). For the same compound, the GI50 in [7] was 0.551 µM (active); in [8], 0.3 µM (active); in experiment [9], 0.343 µM (active); in [10], 0.473 µM (active); in experiment [11], 0.203 µM (active); in experiment [12], 0.49 µM (active). Moreover, the GI50 was 0.256 µM (active) in experiment [13]; 0.223 µM (active) in experiment [14]; 0.247 µM (active) in [15]; 0.391 µM (active) in [16]; 0.0931 µM (active) in [17]; 0.153 µM (active) in [18]. In addition, the GI50 in experiment [19] is 74.5 µM (inactive); in experiment [20], 1.26 µM (inactive).
